For series [1], the target named is T1, DNMT3B (Homo sapiens, UniProt Q9UBC3).
T1 construct: purchased Reaction Biology Corporation
Kind of series: HotSpot radioisotope methyltransferase inhibition assay, DNMT3B. The note with it: for inhibition of DNMT3B (in words): enzymatic inhibition assays. It is filed as biochemical.

The target in series [2] is T2, DNMT3A (Homo sapiens, UniProt Q9Y6K1).
T2 construct: purchased Reaction Biology Corporation
Kind of series: HotSpot radioisotope methyltransferase inhibition assay, DNMT3A. In kind it is biochemical. The procedure: The inhibition of the enzymatic activity of DNMT1, DNMT3A, and DNMT3B was tested using the HotSpotSM platform for methyltransferase assays available at Reaction Biology Corporation. HotSpotSM is a low volume radioisotope-based assay that uses tritium-labeled AdoMet (3H-SAM) as a methyl donor. The three test compounds diluted in dimethyl sulfoxide were added using acoustic technology (Echo550, Labcyte, San Jose, CA, USA) into an enzyme/substrate mixture in the nano-liter range. The corresponding reactions were commenced by adding 3H-SAM and incubated at 30 °C. Total final methylations on the substrate (Poly dI-dC in DNMT1, 3A, and 3B assays) were identified by a filter binding method implemented in Reaction Biology. Data analysis was done with Graphed Prism software (La Jolla, CA, USA) for curve fits. The enzymatic inhibition assays were carried out at 1 μM of SAM. In all assays, SAH was used as a standard positive control. The three compounds were tested first with DNMT1 at one 100 μM concentration in duplicate. […] The research group has recently contracted the screening services of Reaction Biology Corporation to identify a novel DNMTi.

Series [3] deals with T1, DNMT3B. Also noted: method as in PMID 34790902. Conditions: Pappalardi et al.; cited from earlier work.
Series [4] has as its system G9a. The note with it: Figure 1, activity as available in the literature; cited from earlier work.
Series [5] has as its target T1, DNMT3B. On the set-up: method as in PMID 29953809. Conditions: Figure 1, activity as available in the literature; cited from earlier work.
Series [6] deals with T2, DNMT3A. Also noted: method as in PMID 34790902. The note with it: Pappalardi et al.; cited from earlier work.
The next series concerns DNMT3A/3L. Also noted: method as in PMID 29953809. Conditions: Figure 1, activity as available in the literature; cited from earlier work.
The subject of a further series is DNMT3B/3L. Also noted: method as in PMID 29953809. The note with it: Figure 1, activity as available in the literature; cited from earlier work.
Series [7] deals with T3, DNMT1 (Homo sapiens, UniProt P26358).
T3 construct: purchased Reaction Biology Corporation
T3 sequence (P26358 whole entry): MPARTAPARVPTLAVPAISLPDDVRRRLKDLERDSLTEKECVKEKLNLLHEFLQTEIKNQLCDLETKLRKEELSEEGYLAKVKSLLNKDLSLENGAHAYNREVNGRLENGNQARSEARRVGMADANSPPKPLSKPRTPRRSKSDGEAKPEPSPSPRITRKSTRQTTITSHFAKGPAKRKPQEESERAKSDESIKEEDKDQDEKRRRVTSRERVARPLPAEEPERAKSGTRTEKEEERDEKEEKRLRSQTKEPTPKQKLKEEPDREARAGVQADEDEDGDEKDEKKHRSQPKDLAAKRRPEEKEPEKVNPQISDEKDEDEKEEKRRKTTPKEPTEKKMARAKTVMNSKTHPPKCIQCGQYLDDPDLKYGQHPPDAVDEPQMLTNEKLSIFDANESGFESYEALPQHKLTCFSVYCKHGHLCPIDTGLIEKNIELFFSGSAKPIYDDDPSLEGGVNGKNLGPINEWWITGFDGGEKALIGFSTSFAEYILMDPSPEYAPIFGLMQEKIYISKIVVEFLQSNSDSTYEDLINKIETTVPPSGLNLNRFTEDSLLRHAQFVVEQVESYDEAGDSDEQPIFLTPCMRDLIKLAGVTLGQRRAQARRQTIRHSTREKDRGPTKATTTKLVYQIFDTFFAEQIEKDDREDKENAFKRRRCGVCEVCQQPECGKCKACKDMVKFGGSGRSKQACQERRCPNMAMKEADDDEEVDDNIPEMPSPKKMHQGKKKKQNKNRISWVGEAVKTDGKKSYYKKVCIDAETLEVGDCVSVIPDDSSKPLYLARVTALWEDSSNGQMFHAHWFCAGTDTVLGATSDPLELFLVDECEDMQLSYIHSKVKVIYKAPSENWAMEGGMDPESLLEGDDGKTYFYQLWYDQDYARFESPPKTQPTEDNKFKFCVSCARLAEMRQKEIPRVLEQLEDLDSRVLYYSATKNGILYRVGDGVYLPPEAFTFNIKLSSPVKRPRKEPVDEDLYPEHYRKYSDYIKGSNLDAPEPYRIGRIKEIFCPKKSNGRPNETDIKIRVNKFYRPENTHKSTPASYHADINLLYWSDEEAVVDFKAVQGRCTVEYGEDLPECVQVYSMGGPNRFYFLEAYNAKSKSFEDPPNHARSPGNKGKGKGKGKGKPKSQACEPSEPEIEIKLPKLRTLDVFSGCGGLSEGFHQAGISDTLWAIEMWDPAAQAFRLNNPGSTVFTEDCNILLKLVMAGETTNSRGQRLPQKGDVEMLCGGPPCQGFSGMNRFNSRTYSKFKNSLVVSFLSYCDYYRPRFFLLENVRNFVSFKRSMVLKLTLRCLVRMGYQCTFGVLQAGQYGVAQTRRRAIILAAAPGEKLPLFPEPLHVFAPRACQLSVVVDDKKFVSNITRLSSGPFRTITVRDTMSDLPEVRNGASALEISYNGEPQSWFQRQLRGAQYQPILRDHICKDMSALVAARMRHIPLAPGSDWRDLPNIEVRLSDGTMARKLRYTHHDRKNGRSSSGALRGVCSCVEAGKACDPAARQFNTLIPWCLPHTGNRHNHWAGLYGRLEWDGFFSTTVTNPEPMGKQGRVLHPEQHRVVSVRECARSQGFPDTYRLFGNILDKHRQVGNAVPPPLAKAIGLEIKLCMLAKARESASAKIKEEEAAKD
On the set-up: method as in PMID 29953809. The note with it: Figure 1, activity as available in the literature; cited from earlier work.

Series [8] concerns human acute myeloid leukemia xenograft. Also noted: method as in PMID 29953809. Conditions: human acute myeloid leukemia xenograft in a mouse model; cited from earlier work.
The test system of series [9] is H3K9me2 levels in human breast adenocarcinoma (MDA-MB-231) cells. On the set-up: method as in PMID 21780790. The note with it: read-out: potency in reducing H3K9me2 levels; cited from earlier work.
Series [10] has as its system human breast adenocarcinoma (MDA-MB-231) cells. On the set-up: method as in PMID 21780790. The note with it: read-out: cell toxicity EC50; cited from earlier work.
In series [11] the target is T3, DNMT1. Kind of series: HotSpot radioisotope methyltransferase inhibition assay, DNMT1. The note with it: for relative enzymatic activity of DNMT1 as percentages: 100 μM compound, mean of two measurements ± standard deviation; for IC50: 10-concentration IC50, 1 μM SAM, mean of two measurements; for DNMT1: % inhibition / inhibition at 100 µM: single concentration 100 µM, duplicate, 1 μM SAM. In kind it is biochemical.

The subject of series [12] is G9a. On the set-up: method as in PMID 21780790. The note with it: enzymatic, in vitro; cited from earlier work.

Structures are written as SMILES. Where two headings read alike, the source gives them in different places.

T2 sequence (Q9Y6K1 whole entry, looked up): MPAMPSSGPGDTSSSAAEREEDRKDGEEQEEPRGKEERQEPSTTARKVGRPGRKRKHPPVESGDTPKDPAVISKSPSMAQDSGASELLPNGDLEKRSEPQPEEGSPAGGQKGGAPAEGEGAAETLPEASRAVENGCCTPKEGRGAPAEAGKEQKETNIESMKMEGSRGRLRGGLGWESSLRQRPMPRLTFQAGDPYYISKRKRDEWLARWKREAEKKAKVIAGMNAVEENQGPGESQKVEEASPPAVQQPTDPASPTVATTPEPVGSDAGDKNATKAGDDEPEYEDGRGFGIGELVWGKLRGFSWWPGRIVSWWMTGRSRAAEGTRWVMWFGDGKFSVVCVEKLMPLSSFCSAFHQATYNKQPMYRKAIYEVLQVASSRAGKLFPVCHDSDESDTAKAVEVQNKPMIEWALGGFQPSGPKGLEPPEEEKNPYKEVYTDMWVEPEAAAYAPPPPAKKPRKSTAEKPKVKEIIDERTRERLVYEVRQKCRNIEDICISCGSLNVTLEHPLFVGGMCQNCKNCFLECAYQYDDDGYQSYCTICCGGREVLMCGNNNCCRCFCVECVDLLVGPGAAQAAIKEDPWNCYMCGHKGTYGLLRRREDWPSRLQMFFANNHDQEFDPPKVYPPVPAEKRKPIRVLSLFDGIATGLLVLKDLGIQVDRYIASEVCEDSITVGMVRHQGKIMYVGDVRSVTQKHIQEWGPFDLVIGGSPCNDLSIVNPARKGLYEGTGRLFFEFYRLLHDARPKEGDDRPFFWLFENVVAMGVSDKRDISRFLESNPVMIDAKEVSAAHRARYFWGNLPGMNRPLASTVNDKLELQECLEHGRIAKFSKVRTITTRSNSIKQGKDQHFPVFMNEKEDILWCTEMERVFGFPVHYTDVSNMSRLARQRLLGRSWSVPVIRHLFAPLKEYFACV

For the compound `Nc1ncnc2c1ncn2[C@@H]1O[C@H](CSCC[C@H](N)C(=O)O)[C@@H](O)[C@H]1O` [SAH, S-adenosyl-L-homocysteine], the IC50 was 30 nM against DNMT3B [1], 100 nM against DNMT3A [2] and 90 nM at DNMT3B [3].
With `Nc1ncn([C@@H]2O[C@H](CO)[C@@H](O)[C@H]2O)c(=O)n1` [compound 1, 5-azacitidine], the IC50 with G9a [4] is above 10000 nM.
On to `Nc1ncn([C@H]2C[C@H](O)[C@@H](CO)O2)c(=O)n1` [compound 2, 5-aza-2′-deoxycytidine], for which the IC50 in the series on G9a [4] was above 10000 nM.
For the compound `Cc1cc(Nc2ccc(NC(=O)c3ccc(Nc4ccnc5ccccc45)cc3)cc2)nc(N)n1` [compound 3], the IC50 is above 10000 nM in the series with G9a [4] and 7000 nM on DNMT3B [3].
In the case of `COc1ccc(Cl)cc1C(=O)NCCc1ccc(S(=O)(=O)NC(=O)NC2CCCCC2)cc1` [compound 4, Glyburide], the IC50 at DNMT3B [5] was above 100000 nM.
For `CCc1c(C#N)c(SC(C(N)=O)c2ccccc2)nc(N2CCC(N)CC2)c1C#N` (stereo not drawn) [compound 5], on DNMT3A [6], the “inhibition of DNMT3A (in words)” value is “did not inhibit”. Moreover, the IC50 in the series on DNMT3A/3L and in the series with DNMT3B/3L was above 100000 nM throughout. For the same compound, the “inhibition of DNMT3B (in words)” value at DNMT3B [3] is listed as “did not inhibit”.
`C[C@@H]1O[C@@H](CC(=O)O)CC2=C1C(=O)c1c(O)cccc1C2=O` [compound 6, nanaomycin A]: at DNMT1 [7], the IC50 is above 10000 nM.
Regarding `COc1cc2c(NC3CCN(C(C)C)CC3)cc(C3CCCCC3)nc2cc1OCCCN1CCCC1` [compound 7], the IC50 in the series on G9a [4] is 0.7 nM.
In the case of `COc1cc2c(NC3CCN(C)CC3)cc(-c3ccc(C)o3)nc2cc1OCCCN1CCCC1` [compound 8], the tumor growth inhibition in [8] is on record as 70%.
In the case of `COc1cc2nc(N3CCCN(C)CC3)nc(NC3CCN(Cc4ccccc4)CC3)c2cc1OC` [compound 9], the IC50 on DNMT1 [7] is above 10000 nM.
On to `COc1cc2c(NC3CCN(C(C)C)CC3)nc(N3CCC(F)(F)CC3)nc2cc1OCCCN1CCCC1` [compound 11], for which, on DNMT1 [7], the IC50 was above 50000 nM.
Regarding `COc1cc2c(NC3CCN(C4CCCCC4)CC3)nc(N3CCCN(C(C)C)CC3)nc2cc1OCCCN1CCCCC1` [compound 12], the IC50 was 26 nM in series [9]; 30 nM against DNMT1 [11]; 6 nM in the series on G9a [12]; above 100000 nM at DNMT3B [1] (read-out: DNMT3B IC50); 4870 nM against DNMT3A [2]. In [10], the EC50 was 3300 nM. On DNMT1 [11], the “relative enzymatic activity of DNMT1 as percentages” value turned out to be 0.3 ± 0.10%. Also, the “DNMT1: % inhibition” value on DNMT1 [11] is reported as 99.7%. The inhibition at 100 µM against DNMT1 [11] was above 99%. For the same compound, at DNMT3B [1], the “inhibition of DNMT3B (in words)” value is “none of them inhibited”.
With `COc1cc2c(NC3CCN(CC4CCCCC4)CC3)nc(N3CCCN(C(C)C)CC3)nc2cc1OCCCN1CCCCC1` [compound 13], the IC50 in series [9] is 25 nM; against DNMT1 [11], 81 nM; with G9a [12] it was 4 nM; on DNMT3B [1] (read-out: DNMT3B IC50), above 100000 nM; on DNMT3A [2], 14700 nM. Further, the EC50 in series [10] is 2800 nM. The “relative enzymatic activity of DNMT1 as percentages” value on DNMT1 [11] is 0.7 ± 0.02%. At DNMT1 [11], the “DNMT1: % inhibition” value worked out at 99.3%. This compound yielded an inhibition at 100 µM against DNMT1 [11] above 99%. In addition, on DNMT3B [1], the “inhibition of DNMT3B (in words)” value is “none of them inhibited”.
With `COc1cc2c(Nc3ccc(NC(=O)c4ccccc4)cc3)ncnc2cc1OCCCN1CCOCC1` [compound 14], at DNMT1 [11], the “relative enzymatic activity of DNMT1 as percentages” value worked out at 92.6 ± 2.40% and at 100 µM the inhibition was 7.4%.

The record behind these values is article PMC9102847, “7-Aminoalkoxy-Quinazolines from Epigenetic Focused Libraries Are Potent and Selective Inhibitors of DNA Methyltransferase 1” (Molecules, 2022).
